Measured values taken from patent US6919330B2, “Formulations of drugs” (Laxdale Limited, priority 2002, dated 2005).

Experiment: Plasma and red cell selenium levels in healthy controls and patient groups on drugs
Type: in vivo, human
Conditions: schizophrenic patients on the drug, compared with the other groups
Description: Here the selenium levels are expressed in μmol/litre and are shown as means plus or minus the Standard Error of the Mean (SEM)

- selenium levels: exceptionally low
Structure (SMILES): CN1CCN(C2=Nc3cc(Cl)ccc3Nc3ccccc32)CC1 [clozapine]
